Assays:
PDK1 kinase = target: T1, PDK1 kinase (Homo sapiens, UniProt O15530); test: PDK1 Kinase Alpha Screen Assay; assay type: biochemical; settings: PDK1 Kinase Alpha Screen Assay; read-out: PDK1 IC50
T1 sequence (O15530 1-556): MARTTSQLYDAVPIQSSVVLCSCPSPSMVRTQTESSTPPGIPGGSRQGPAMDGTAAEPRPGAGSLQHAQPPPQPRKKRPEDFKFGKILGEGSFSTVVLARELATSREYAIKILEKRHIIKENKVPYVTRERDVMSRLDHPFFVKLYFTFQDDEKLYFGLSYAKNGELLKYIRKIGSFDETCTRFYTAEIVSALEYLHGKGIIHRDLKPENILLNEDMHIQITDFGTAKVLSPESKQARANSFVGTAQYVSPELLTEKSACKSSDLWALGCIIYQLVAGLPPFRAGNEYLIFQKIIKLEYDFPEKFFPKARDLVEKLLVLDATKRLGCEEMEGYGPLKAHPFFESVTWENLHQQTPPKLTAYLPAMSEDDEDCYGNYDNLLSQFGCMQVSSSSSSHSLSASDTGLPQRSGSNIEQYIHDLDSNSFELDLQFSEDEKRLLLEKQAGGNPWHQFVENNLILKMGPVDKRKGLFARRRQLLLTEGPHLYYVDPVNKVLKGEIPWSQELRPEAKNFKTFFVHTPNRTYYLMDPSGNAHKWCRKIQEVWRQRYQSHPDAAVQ
How it was run: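 AlphaScreen readout: phospho-peptide captured by phospho-(Ser/Thr) PKA substrate antibody (0.3 mg/ml) on protein A acceptor beads, biotin peptide on streptavidin donor beads (25 μg/ml each), overnight at room temperature. Kinase step used 50 nM PDK1-4 peptide, 10 uM ATP, 3-18 hours.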

PC-3 cells = test: Cell Proliferation Assay (Cell Titer Glo), PC-3 cell line; assay type: cell-based; settings: Homo sapiens, PC-3, Cell Proliferation Assay, PC3; read-out: CPEC50 PC3
How it was run: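 Cell Titer Glo luminescence, read after fresh medium replaced the dosing medium, gave viability of PC-3 cells plated at 1000 cells/well. Compounds, 1:3 serially diluted in DMSO at 500× and then in medium, were added after 3-5 h adhesion and incubated 3 days at 37° C.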

SMILES | IC50 (PDK1 kinase) [µM] | EC50 (PC-3 cells) [µM]
CC(C)N1CCC(Oc2cccc3cnc(Nc4cccc(Cl)c4)nc23)CC1 [Compound 528, N-(3-chlorophenyl)-8-(1-isopropylpiperidin-4-yloxy)quinazolin-2-amine] | < 5 | < 5
CC(C)N1CCC(Oc2cccc3cnc(Nc4cccc(C(F)(F)F)c4)nc23)CC1 [Compound 529, 8-(1-isopropylpiperidin-4-yloxy)-N-(3-(trifluoromethyl)phenyl)quinazolin-2-amine] | < 5 | < 5
CC(C)N1CCC(Oc2cccc3cnc(Nc4cccc(C#N)c4)nc23)CC1 [Compound 530, 3-(8-(1-isopropylpiperidin-4-yloxy)quinazolin-2-ylamino)benzonitrile] | < 5 | < 5
COc1cccc(Nc2ncc3cccc(OC4CCN(C(C)C)CC4)c3n2)c1 [Compound 531, 8-(1-isopropylpiperidin-4-yloxy)-N-(3-methoxyphenyl)quinazolin-2-amine] | < 5 | 5 to 10
CC(C)N1CCC(Oc2cccc3cnc(Nc4ccccc4F)nc23)CC1 [Compound 532, N-(2-fluorophenyl)-8-(1-isopropylpiperidin-4-yloxy)quinazolin-2-amine] | 5 to 10 | 5 to 10
CC(C)N1CCC(Oc2cccc3cnc(Nc4cc(F)cc(F)c4)nc23)CC1 [Compound 533, N-(3,5-difluorophenyl)-8-(1-isopropylpiperidin-4-yloxy)quinazolin-2-amine] | < 5 | < 5
CC(C)N1CCC(Oc2cccc3cnc(Nc4ccccc4)nc23)CC1 [Compound 534, 8-(1-isopropylpiperidin-4-yloxy)-N-phenylquinazolin-2-amine] | < 5 | < 5
COc1ccc(Nc2ncc3cccc(OC4CCN(C(C)C)CC4)c3n2)cc1 [Compound 535, 8-(1-isopropylpiperidin-4-yloxy)-N-(4-methoxyphenyl)quinazolin-2-amine] | < 5 | 5 to 10
CC(C)N1CCC(Oc2cccc3cnc(Nc4ccc(C#N)cc4)nc23)CC1 [Compound 536, 4-(8-(1-isopropylpiperidin-4-yloxy)quinazolin-2-ylamino)benzonitrile] | < 5 | < 5
CC(C)N1CCC(Oc2cccc3cnc(Nc4ccc(C(=O)N5CCOCC5)cc4)nc23)CC1 [Compound 537, (4-(8-(1-isopropylpiperidin-4-yloxy)quinazolin-2-ylamino)phenyl)(morpholino)methanone] | < 5 | 5 to 10
O=C(c1ccc(Nc2ncc3cccc(OC4CCNCC4)c3n2)cc1)N1CCOCC1 [Compound 538, morpholino(4-(8-(piperidin-4-yloxy)quinazolin-2-ylamino)phenyl)methanone] | < 5 | < 5
CC(=O)N1CCC(Oc2cccc3cnc(Nc4ccc(S(N)(=O)=O)cc4)nc23)CC1 [Compound 539, 4-(8-(1-acetylpiperidin-4-yloxy)quinazolin-2-ylamino)benzenesulfonamide] | < 5 | < 5
CS(=O)(=O)N1CCC(Oc2cccc3cnc(Nc4ccc(S(N)(=O)=O)cc4)nc23)CC1 [Compound 540, 4-(8-(1-(methylsulfonyl)piperidin-4-yloxy)quinazolin-2-ylamino)benzenesulfonamide] | < 5 | < 5

The next lines start with the values.

IC50 (PDK1 kinase) [µM] | EC50 (PC-3 cells) [µM] | SMILES
< 5 | < 5 | c1cc(Nc2ncc3cccc(OC4CCNCC4)c3n2)cc(N2CCOCC2)c1 [Compound 545, N-(3-morpholinophenyl)-8-(piperidin-4-yloxy)quinazolin-2-amine]
< 5 | < 5 | c1cc(OC2CCNCC2)c2nc(Nc3ccc(N4CCOCC4)cc3)ncc2c1 [Compound 546, N-(4-morpholinophenyl)-8-(piperidin-4-yloxy)quinazolin-2-amine]
5 to 10 | 5 to 10 | COc1ccc(NC(C)=O)cc1Nc1ncc2cccc(OC3CCNCC3)c2n1 [Compound 547, N-(4-methoxy-3-(8-(piperidin-4-yloxy)quinazolin-2-ylamino)phenyl)acetamide]
< 5 | < 5 | CN1CCN(c2ccc(Nc3ncc4cccc(OC5CCNCC5)c4n3)cc2)CC1 [Compound 548, N-(4-(4-methylpiperazin-1-yl)phenyl)-8-(piperidin-4-yloxy)quinazolin-2-amine]
< 5 | < 5 | CNS(=O)(=O)c1ccc(Nc2ncc3ccc(O)c(C4CCN(C(C)C)CC4)c3n2)cc1 [Compound 549]
< 5 | 5 to 10 | c1cc(Nc2ncc3cccc(OC4CCNCC4)c3n2)cc(N2CCCC2)c1 [Compound 550, 8-(piperidin-4-yloxy)-N-(3-(pyrrolidin-1-yl)phenyl)quinazolin-2-amine]
< 5 | 5 to 10 | CC(C)N1CCC(Oc2cccc3cnc(Nc4cccc(N5CCCC5)c4)nc23)CC1 [Compound 551, 8-(1-isopropylpiperidin-4-yloxy)-N-(3-(pyrrolidin-1-yl)phenyl)quinazolin-2-amine]
10 to 25 | 5 to 10 | CC(C)N1CCC(Oc2cccc3cnc(N4CCN(c5ccc(N)cc5)CC4)nc23)CC1 [Compound 552, 4-(4-(8-(1-isopropylpiperidin-4-yloxy)quinazolin-2-yl)piperazin-1-yl)aniline]
< 5 | < 5 | CC(C)N1CCC(Oc2cc(-c3nccs3)cc3cnc(Nc4ccc(N5CCOCC5)cc4)nc23)CC1 [Compound 553, 8-(1-isopropylpiperidin-4-yloxy)-N-(4-morpholinophenyl)-6-(thiazol-2-yl)quinazolin-2-amine]
5 to 10 | 5 to 10 | COc1cc(Nc2ncc3ccc(OC4CCN(C(C)C)CC4)cc3n2)cc(OC)c1 [Compound 565, N-(3,5-dimethoxyphenyl)-7-(1-isopropylpiperidin-4-yloxy)quinazolin-2-amine]
< 5 | < 5 | COc1cc(Nc2ncc3ccc(OC4CCN(C)CC4)cc3n2)cc(OC)c1 [Compound 566, N-(3,5-dimethoxyphenyl)-7-(1-methylpiperidin-4-yloxy)quinazolin-2-amine]
< 5 | < 5 | Fc1cccc(Nc2ncc3ccc(OC4CCNCC4)cc3n2)c1 [Compound 567, N-(3-fluorophenyl)-7-(piperidin-4-yloxy)quinazolin-2-amine]
< 5 | < 5 | Fc1cc(F)cc(Nc2ncc3ccc(OC4CCNCC4)cc3n2)c1 [Compound 568, N-(3,5-difluorophenyl)-7-(piperidin-4-yloxy)quinazolin-2-amine]
< 5 | < 5 | FC(F)(F)c1cccc(Nc2ncc3ccc(OC4CCNCC4)cc3n2)c1 [Compound 569, 7-(piperidin-4-yloxy)-N-(3-(trifluoromethyl)phenyl)quinazolin-2-amine]
< 5 | < 5 | CS(=O)(=O)c1cccc(Nc2ncc3ccc(OC4CCNCC4)cc3n2)c1 [Compound 570, N-(3-(methylsulfonyl)phenyl)-7-(piperidin-4-yloxy)quinazolin-2-amine]
< 5 | < 5 | COc1cccc(Nc2ncc3ccc(OC4CCNCC4)cc3n2)c1 [Compound 571, N-(3-methoxyphenyl)-7-(piperidin-4-yloxy)quinazolin-2-amine]

— patent US7932262B2 (Novartis AG, priority 2006, dated 2011)
